Data taken from patent publication US20240308960A1 (Sumitomo Pharma Co., Ltd., priority 2021, published 2024).

Target: T1, Human orexin receptor type 2 (Homo sapiens, UniProt O43614)
T1 sequence (O43614 1-444): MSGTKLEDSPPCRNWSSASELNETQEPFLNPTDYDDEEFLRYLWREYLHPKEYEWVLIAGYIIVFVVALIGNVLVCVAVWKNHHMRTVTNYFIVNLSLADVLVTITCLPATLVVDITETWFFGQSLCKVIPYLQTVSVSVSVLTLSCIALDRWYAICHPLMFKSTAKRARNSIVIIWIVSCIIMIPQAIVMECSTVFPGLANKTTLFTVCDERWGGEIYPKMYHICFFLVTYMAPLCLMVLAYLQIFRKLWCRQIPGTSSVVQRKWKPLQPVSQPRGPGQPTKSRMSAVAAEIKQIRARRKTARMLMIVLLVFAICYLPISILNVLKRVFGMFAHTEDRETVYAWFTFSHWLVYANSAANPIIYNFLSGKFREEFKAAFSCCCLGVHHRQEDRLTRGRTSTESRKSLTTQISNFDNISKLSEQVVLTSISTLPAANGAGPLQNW
Test: Test Example 1: agonist activity for orexin receptor type 2 (aequorin luminescence, intracellular calcium mobilization)
Details: compound 10 μm; CHO cells transiently expressing human orexin receptor type 2 and apoaequorin; relative percentage of luminescence for the luminescence (100%) of Orexin A (100 μM)
Protocol: Human orexin receptor type 2 and apoaequorin were transiently expressed in CHO cells, and the agonist activity was evaluated based on intracellular calcium mobilization with ligand stimulation. The CHO cells transiently-expressed human orexin receptor type 2 and apoaequorin were seeded on a 384-well plate by 2,000 cells/well, and then incubated for 16-22 hours. After the plate was returned to room temperature, Coelenterazine hcp (final concentration: 1 μM) was added to the plate, and the plate was allowed to stand at room temperature for 2 hours. And then, Orexin A or each test compound was added to the plate, and the luminescence of the cells was measured with FDSS7000 (Hamamatsu Photonics K. K.), wherein Orexin A and each test compound were dissolved in DMSO (final concentration: 0.1%), and diluted with a buffer (Hanks, 20 mM HEPES, 0.1% BSA). The agonist activity of each test compound for orexin receptor type 2 was calculated as relative percentage of luminescence for the luminescence (100%) of Orexin A (100 μM).

| Compound | Agonist Activity (%) |
| --- | --- |
| CC(C)N1CCC(Oc2cccc(Cl)c2NC(=O)N2CCC(C)(c3noc(C4CC4)n3)CC2)C1 (racemic) [Example 110, Rac-N-(2-chloro-6-{[1-(propan-2-yl)pyrrolidin-3-yl]oxy}phenyl)-4-(5-cyclopropyl-1,2,4-oxadiazol-3-yl)-4-methylpiperidine-1-carboxamide] | 148 |
| CC1(C#N)CCN(C(=O)Nc2c(Cl)cccc2C2=CCN(C3CCC3)CC2)CC1 [Example 159, N-[2-chloro-6-(1-cyclobutyl-1,2,3,6-tetrahydropyridin-4-yl)phenyl]-4-cyano-4-methylpiperidine-1-carboxamide] | 150 |
| CC(C)N1CCN(c2cccc(Cl)c2NC(=O)N2CCC(C)(c3noc(C4(C)CC4)n3)CC2)CC1 [Example 80, N-{2-chloro-6-[4-(propan-2-yl)piperazin-1-yl]phenyl}-4-methyl-4-[5-(1-methylcyclopropyl)-1,2,4-oxadiazol-3-yl]piperidine-1-carboxamide] | 157 |
| CC(C)N1CCN(c2ccccc2NC(=O)N2CCC(C)(c3nc(-c4ccccc4)no3)CC2)CC1 [Example 12, 4-methyl-4-(3-phenyl-1,2,4-oxadiazol-5-yl)-N-{2-[4-(propan-2-yl)piperazin-1-yl]phenyl}piperidine-1-carboxamide] | 123 |
| CC(C)N1CCN(c2cccc(Cl)c2NC(=O)N2CCC(C)(c3noc([C@H]4C[C@H]4C)n3)CC2)CC1 [Example 117, N-{2-chloro-6-[4-(propan-2-yl)piperazin-1-yl]phenyl}-4-methyl-4-{5-[(1S,2R)-2-methylcyclopropyl]-1,2,4-oxadiazol-3-yl}piperidine-1-carboxamide] | 158 |
| CC(C)N1CC(Oc2cccc(Cl)c2NC(=O)N2CCC(C)(c3noc(C4CC4)n3)CC2)C1 [Example 160, N-(2-chloro-6-{[1-(propan-2-yl)azetidin-3-yl]oxy}phenyl)-4-(5-cyclopropyl-1,2,4-oxadiazol-3-yl)-4-methylpiperidine-1-carboxamide] | 141 |
| CC1(c2noc(C3CC3)n2)CCN(C(=O)Nc2c(Cl)cccc2N2CCN(C3CC3)CC2)CC1 [Example 113, N-[2-chloro-6-(4-cyclopropylpiperazin-1-yl)phenyl]-4-(5-cyclopropyl-1,2,4-oxadiazol-3-yl)-4-methylpiperidine-1-carboxamide] | 157 |
| CC(C)N1C[C@H]2C[C@@H]1CN2c1cccc(F)c1NC(=O)N1CCC(C)(c2noc(C3CC3)n2)CC1 [Example 152, 4-(5-cyclopropyl-1,2,4-oxadiazol-3-yl)-N-{2-fluoro-6-[(1R,4R)-5-(propan-2-yl)-2,5-diazabicyclo[2.2.1]heptan-2-yl]phenyl}-4-methylpiperidine-1-carboxamide] | 136 |
| Cc1ccc(C2CCN(C(=O)Nc3c(N4CCN(C(C)C)CC4)cccc3C(F)(F)F)CC2)cc1 [Example 34, 4-(4-methylphenyl)-N-{2-[4-(propan-2-yl)piperazin-1-yl]-6-(trifluoromethyl)phenyl}piperidine-1-carboxamide] | 161 |
| CC(C)c1ncc(C2(C)CCN(C(=O)Nc3c(Cl)cccc3N3CCN(C(C)C)CC3)CC2)o1 [Example 93, N-{2-chloro-6-[4-(propan-2-yl)piperazin-1-yl]phenyl}-4-methyl-4-[2-(propan-2-yl)-1,3-oxazol-5-yl]piperidine-1-carboxamide] | 203 |
| CC1(c2noc(C3CC3)n2)CCN(C(=O)Nc2c(Cl)cccc2N2CCN(C(C)(C)C)CC2)CC1 [Example 100, N-[2-(4-tert-butylpiperazin-1-yl)-6-chlorophenyl]-4-(5-cyclopropyl-1,2,4-oxadiazol-3-yl)-4-methylpiperidine-1-carboxamide] | 160 |
| CC(C)N1CCN(c2cccc(F)c2NC(=O)N2CCC(C)(c3noc(C4CCCC4)n3)CC2)CC1 [Example 73, 4-(5-cyclopentyl-1,2,4-oxadiazol-3-yl)-N-{2-fluoro-6-[4-(propan-2-yl)piperazin-1-yl]phenyl}-4-methylpiperidine-1-carboxamide] | 141 |
| Cc1ccc(C2CCN(C(=O)Nc3c(F)cccc3N3CC4CCC(C3)N4C(C)C)CC2)cc1 [Example 154, N-{2-fluoro-6-[8-(propan-2-yl)-3,8-diazabicyclo[3.2.1]octan-3-yl]phenyl}-4-(4-methylphenyl)piperidine-1-carboxamide] | 40 |
| CCc1nc(C2(C)CCN(C(=O)Nc3c(Cl)cccc3N3CCN(C(C)C)CC3)CC2)no1 [Example 83, N-{2-chloro-6-[4-(propan-2-yl)piperazin-1-yl]phenyl}-4-(5-ethyl-1,2,4-oxadiazol-3-yl)-4-methylpiperidine-1-carboxamide] | 146 |
| CCN1CCN(c2ccccc2NC(=O)N2CCC(C)(c3ccccc3)CC2)CC1.Cl [Example 4, N-[2-(4-ethylpiperazin-1-yl)phenyl]-4-methyl-4-phenylpiperidine-1-carboxamide hydrochloride] | 125 |
| Cc1ccc(C2CCN(C(=O)Nc3ccccc3N3CCN(C(C)C)CC3C)CC2)cc1 (racemic) [Example 30, Rac-4-(4-methylphenyl)-N-{2-[2-methyl-4-(propan-2-yl)piperazin-1-yl]phenyl}piperidine-1-carboxamide] | 36 |
| COc1cccc(C2CCN(C(C)C)CC2)c1NC(=O)N1CCC(c2ccc(C)cc2)CC1 [Example 48, N-{2-methoxy-6-[1-(propan-2-yl)piperidin-4-yl]phenyl}-4-(4-methylphenyl)piperidine-1-carboxamide] | 146 |
| Cc1ccc(C2CCN(C(=O)Nc3c(F)cccc3N3C4CCC3CN(C(C)C)C4)CC2)cc1 [Example 161, N-{2-Fluoro-6-[3-(propan-2-yl)-3,8-diazabicyclo[3.2.1]octan-8-yl]phenyl}-4-(4-methylphenyl)piperidine-1-carboxamide] | 90 |
| Cc1ccc(C2CCN(C(=O)Nc3ccc(F)cc3N3CCN(C(C)C)CC3)CC2)cc1 [Example 10, N-{4-fluoro-2-[4-(propan-2-yl)piperazin-1-yl]phenyl}-4-(4-methylphenyl)piperidine-1-carboxamide] | 34 |
| Cc1ccc(C2CCN(C(=O)Nc3c(F)cccc3C3CCN(C(C)C(F)F)CC3)CC2)cc1 (centres unmarked) [Example 138, N-{2-[1-(1,1-difluoropropan-2-yl)piperidin-4-yl]-6-fluorophenyl}-4-(4-methylphenyl)piperidine-1-carboxamide] | 44 |
| Cc1ccc(C2CCN(C(=O)Nc3c(F)cccc3OC3CCN(C(C)C)CC3)CC2)cc1 [Example 62, N-(2-fluoro-6-{[1-(propan-2-yl)piperidin-4-yl]oxy}phenyl)-4-(4-methylphenyl)piperidine-1-carboxamide] | 75 |
| Cc1ccc(C2CCN(C(=O)Nc3c(F)cccc3C3=CCN(C(C)C(F)F)CC3)CC2)cc1 (centres unmarked) [Example 135, N-{2-[1-(1,1-difluoropropan-2-yl)-1,2,3,6-tetrahydropyridin-4-yl]-6-fluorophenyl}-4-(4-methylphenyl)piperidine-1-carboxamide] | 103 |
| CCC1(c2noc(C3CC3)n2)CCN(C(=O)Nc2c(F)cccc2N2CCN(C(C)C)CC2)CC1 [Example 87, 4-(5-cyclopropyl-1,2,4-oxadiazol-3-yl)-4-ethyl-N-{2-fluoro-6-[4-(propan-2-yl)piperazin-1-yl]phenyl}piperidine-1-carboxamide] | 142 |
| CC(C)N1CCN(c2cccc(Cl)c2NC(=O)N2CCC(C)(c3noc([C@@H]4C[C@@H]4C)n3)CC2)CC1 (racemic) [Example 104, Rac-N-{2-chloro-6-[4-(propan-2-yl)piperazin-1-yl]phenyl}-4-methyl-4-{5-[(1R,2S)-2-methylcyclopropyl]-1,2,4-oxadiazol-3-yl}piperidine-1-carboxamide] | 180 |
| CC(C)N1CCN(c2ccccc2NC(=O)N2CCC(C#N)(c3ccccc3)CC2)CC1.Cl [Example 6, 4-cyano-4-phenyl-N-{2-[4-(propan-2-yl)piperazin-1-yl]phenyl}piperidine-1-carboxamide] | 151 |
| CC(C)c1ccc(C2CCN(C(=O)Nc3c(F)cccc3N3CCN(C(C)C)CC3)CC2)cc1 [Example 40, N-{2-fluoro-6-[4-(propan-2-yl)piperazin-1-yl]phenyl}-4-[4-(propan-2-yl)phenyl]piperidine-1-carboxamide] | 122 |
| Cc1ncc(C2(C)CCN(C(=O)Nc3c(Cl)cccc3N3CCN(C(C)C)CC3)CC2)o1 [Example 92, N-{2-chloro-6-[4-(propan-2-yl)piperazin-1-yl]phenyl}-4-methyl-4-(2-methyl-1,3-oxazol-5-yl)piperidine-1-carboxamide] | 196 |
| CC(C)c1nc(C2(C)CCN(C(=O)Nc3ccccc3N3CCN(C(C)C)CC3)CC2)no1 [Example 19, 4-methyl-4-[5-(propan-2-yl)-1,2,4-oxadiazol-3-yl]-N-{2-[4-(propan-2-yl)piperazin-1-yl]phenyl}piperidine-1-carboxamide] | 133 |
| COc1cccc(N2CCN(C(C)C)CC2)c1NC(=O)N1CCC(c2ccc(OC(F)(F)F)cc2)CC1 [Example 16, N-{2-methoxy-6-[4-(propan-2-yl)piperazin-1-yl]phenyl}-4-[4-(trifluoromethoxy)phenyl]piperidine-1-carboxamide] | 82 |
